Measurements published in PMC5594493, “Antiproliferative factor (APF) binds specifically to sites within the cytoskeleton-associated protein 4 (CKAP4) extracellular domain” (BMC Biochemistry, 2017).
pIC50: −log10 of the molar value. Several values for one entry are separate records, joined by “and”; a condition that tells them apart may be missing. Equal entries are not always repeated. Entries after “also recorded” stand apart in the source; their conditions may differ.

Assays:
[1] = system: normal bladder epithelial cells; conditions: in vitro; background statement, no reference given; read-out: IC50, growth inhibition; cited from earlier work
Source text: (§1) The effects that APF has on cells are remarkable and unique among the reported ligands for CKAP4.

CKAP4 [2] = conditions: ref [17], [18]; cited from earlier work
Source text: as §1

bladder carcinoma cells = conditions: in vitro; background statement, no reference given; read-out: IC50, growth inhibition; cited from earlier work
Source text: as §1

HeLa cells = conditions: in vitro; background statement, no reference given; read-out: IC50, growth inhibition; cited from earlier work
Source text: as §1

[3] = system: T24 bladder carcinoma cells; experiment: XTT cell proliferation assay, T24; assay type: cell-based; conditions: 20 nM, 96 h, serum-free, relative to vehicle/control, at least four independent times, P < 0.0001 vs control, as-APF vs APF P = 0.0103 (unpaired t-test, Welch's correction)
Method: T24 bladder carcinoma cells (ATCC #HTB-4; Manassas, VA) were maintained in HyClone-formulated McCoy’s 5A modified media (Catalog #SH30525.01) supplemented with 10% fetal bovine serum (FBS) (Atlanta Biologicals, Flowery Branch, GA), 100 U/ml penicillin, and 100 μg/ml streptomycin (Invitrogen, Carlsbad, CA). Cell proliferation was measured using the XTT Cell Proliferation Assay Kit (ATCC). T24 cells were seeded at 1 × 10^3–4 × 10^3 per well in a 48-well plate in 300 μl/well McCoy’s supplemented medium. Cells were serum-starved for 24 h and then treated with either 20 nM APF, 20 nM as-APF, or 25 μM H2O2 (antiproliferative control) diluted in serum-free McCoy’s medium. Cells were incubated at 37 °C in a 5% CO2 atmosphere for an additional 96 h, after which 150 μl of activated–XTT solution was added to each well followed by an additional 3 h incubation. Absorbance was then measured at 475 nm and 660 nm using an M5 microplate reader (Molecular Devices, Sunnyvale, CA), and the specific absorbance was calculated. P values were assigned using unpaired t-test with Welch’s correction. The assay was repeated four independent times.

CKAP4 [4] = experiment: SPR binding to CKAP4 recombinant proteins (overall statements); conditions: comparison of as-APF, APF and control peptide
Method: (§2) All SPR experiments were performed on a Biacore X-100 instrument (GE Healthcare) with the chip surface at 25 °C using PBS containing 0.01% Tween-20 as running buffer. CKAP4 recombinant proteins were immobilized individually either by Ni^2+/nitrilotriacetic acid (NTA) chelation on Sensor Chip NTA or by amine-coupling on Sensor Chip CM5, on the Fc2 channel. For amine-coupling, the sensor surface on both flow cells was activated for 7 min with a 1:1 mixture of 0.1 M EDC (1-ethyl-3-(3-dimethylaminopropyl) carbodiimide hydrochloride) and 0.1 M NHS (N-hydroxysuccinimide) at a flow rate of 5 μl/min. Immobilization of CKAP4 proteins (on Fc2) was performed in 10 mM sodium acetate buffer, at either pH 4.5, 5.0, or 5.5 based on preliminary pH scouting runs, for optimal binding. Unreacted NHS groups were quenched with a 7 min injection of 1 M ethanolamine pH 8.5. The Fc1 channel was treated similarly but without CKAP4 and served as a reference. Upon stabilization of the baseline signal, multi-cycle kinetics assays were performed with injections of as-APF as analyte at various concentrations (2.5–40 μM) in running buffer at 30 μl/min for 2 min, immediately followed by a 3 min dissociation phase. […] The data were analyzed using Biacore Evaluation software V2.0. […]

CKAP4_127–602 = molecular target: T1, CKAP4_127–602 (Homo sapiens, UniProt Q07065); experiment: SPR, CKAP4_127–602 as immobilized ligand; assay type: binding; conditions: CKAP4_127–602 immobilized on NTA chip
T1 construct: encompassing only the extracellular domain (Aa 127–602) tagged at the C-terminus with a His-tag (CKAP4_127–602); His-tag (C); made in house; host or cells: E. coli BL21(DE3)pLysS
T1 sequence (Q07065 127-602): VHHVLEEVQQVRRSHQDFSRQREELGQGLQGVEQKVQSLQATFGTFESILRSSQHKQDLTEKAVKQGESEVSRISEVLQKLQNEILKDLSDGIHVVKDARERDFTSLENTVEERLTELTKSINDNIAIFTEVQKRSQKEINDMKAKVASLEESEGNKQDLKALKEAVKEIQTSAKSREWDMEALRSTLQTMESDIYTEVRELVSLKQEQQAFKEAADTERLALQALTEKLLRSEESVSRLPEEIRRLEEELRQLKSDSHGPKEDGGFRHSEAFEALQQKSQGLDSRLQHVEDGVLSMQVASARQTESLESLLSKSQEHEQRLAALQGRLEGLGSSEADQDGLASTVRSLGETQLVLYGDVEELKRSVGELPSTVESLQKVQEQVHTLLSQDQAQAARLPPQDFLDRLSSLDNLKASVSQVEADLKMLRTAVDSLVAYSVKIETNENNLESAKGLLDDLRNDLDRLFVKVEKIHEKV
Method: as §2

CKAP4_106–602 = experiment: SPR, CKAP4_106–602 as immobilized ligand; assay type: binding; conditions: CKAP4_106–602 immobilized on NTA chip
Method: as §2

In the case of “Neu5Acα2 − 3Galβ1 − 3GalNAcα-O-TVPAAVVVA [APF]”, the pIC50 [1] is given as about 9.00, the “effect on CKAP4 localization” value (CKAP4 [2]) is given as “internalization, nuclear translocation” and the pIC50 (bladder carcinoma cells) is given as about 9.00. The pIC50 (HeLa cells) was about 9.00, the “reduction of T24 cell proliferation” value [3] was 47% and 47.08 ± 12.88% and the “binding to CKAP4 (in words)” value (CKAP4 [4]) was “bound to CKAP4 with high specificity compared to control APF peptide”. The binding (CKAP4_127–602) was “did not bind robustly” and the binding (CKAP4_106–602) was “did not bind robustly; also recorded: did not generate sufficient binding”.
